# Assay results reported in US8183275B2, “Substituted imidazoles as bombesin receptor subtype-3 modulators” (Merck Sharp & Dohme Corp., priority 2006, dated 2012).
# Target: T1, human BRS-3 (Homo sapiens, UniProt P32247)
# T1 construct: expressed in transfected cells
# T1 sequence (P32247 1-399): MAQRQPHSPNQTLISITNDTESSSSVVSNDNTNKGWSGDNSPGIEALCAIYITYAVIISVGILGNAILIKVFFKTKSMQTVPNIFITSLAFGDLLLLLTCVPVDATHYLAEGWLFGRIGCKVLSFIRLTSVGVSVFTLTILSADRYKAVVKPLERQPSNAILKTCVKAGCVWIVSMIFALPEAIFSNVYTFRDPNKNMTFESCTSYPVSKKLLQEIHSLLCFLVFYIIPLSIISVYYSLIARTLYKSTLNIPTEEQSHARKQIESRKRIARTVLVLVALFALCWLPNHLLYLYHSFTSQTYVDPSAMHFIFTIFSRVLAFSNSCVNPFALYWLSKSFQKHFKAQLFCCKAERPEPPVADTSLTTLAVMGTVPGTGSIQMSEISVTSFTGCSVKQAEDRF
# Experiment: Bombesin Receptor Subtype 3 (BRS3) binding assay (radioligand filtration)
# Details: BRS-3 Receptor Binding Activity for Selected Compounds
# Procedure: Dissociated cells were collected by centrifuging at 1000 rpm for 10 minutes. Cell pellets were resuspended and homogenized at 4° C. using a Polytron homogenizer (setting 40, 20 stokes) in approximately 10 mL membrane preparation buffer (10 mM Tris pH 7.4, 0.01 mM Pefabloc, 10 μM phosphoramidon and 40 μg/mL Bacitracin) per T175 flask. After centrifugation at 2200 rpm (1000×g) for 10 minutes at 4° C., the supernatant was transferred to a clean centrifuge tube and spun at 18,000 rpm (38,742×g) for 15 minutes. at 4° C. […]
# The radioligand, [^3H]-1-{4-[(4,5-difluoro-2-hydroxycarbonylphenyl)phenyl])-2-(4-cyclohexylmethyl-1H-imidazol-2-yl)ethane, was used for binding to receptor membranes generated with BRS3 from other species and was also utilized for the human receptor. […] After incubation for 1-2 hours at room temperature, membrane bound [^3H]-biphenyl was separated from free radiologand by filtering through GF/C filters presoaked in 1% PEI solution. The filters were washed five times with ice-cold washing buffer (50 mM Tris pH 7.4, 10 mM MgCl2, 2.5 mM EDTA and 0.02% Triton X-100). The radioactivity was determined by adding 30 μl of microscintillant/well after each plate was dried at room temperature overnight or placed at 50° C. for 1 hr.
# A Packard Top Count was used to read the filter plates. The data in % inhibition of binding was plotted vs. the log molar concentration of receptor ligand (compound). The IC50 was reported as the inflection point of the resulting sigmoidal curve.
row,SMILES,IC50
1,"CC(C)(C)Cc1cnc(CCc2ccc(-c3ccccc3C(=O)O)cc2)[nH]1 [Example 1, 4′-{2-[4-(2,2-Dimethylpropyl)-1H-imidazol-2-yl]ethyl}biphenyl-2-carboxylic Acid]",38 nM
2,"CCC(C)(C)Cc1c[nH]c(CCc2ccc(-n3cccn3)cc2)n1 [Example 205, 1-(4-{2-[4-(2,2-dimethylbutyl)-1H-imidazol-2-yl]ethyl}phenyl)-1H-pyrazole]",33 nM
3,CCC(C)(C)Cc1c[nH]c(CCc2ccc(-c3cccc4cn[nH]c34)cc2)n1 [Example 221],4.8 nM
4,"CCC(C)(C)Cc1c[nH]c(CCc2ccc(N3CCCC[C@@H]3C(=O)O)cc2)n1 [Example 225, (R)-N-(4-{2-[4-(2,2-Dimethylbutyl)-1H-imidazol-2-yl]ethyl}phenyl)piperidine-2-carboxylic acid]",18 nM
5,"CCC(C)(C)Cc1c[nH]c(CCc2ccc(N3CCCc4cn[nH]c43)cc2)n1 [Example 226, 7-(4-{2-[5-(2,2-Dimethylbutyl)-1H-imidazol-2-yl]ethyl}phenyl)-4,5,6,7-tetrahydro-1H-pyrazolo[3,4-b]pyridine]",18 nM
6,"CCC(C)(C)Cc1c[nH]c(CCc2ccc(C3CCCCC3C(=O)O)cc2)n1 (stereo not shown) [Example 227, 2-(4-{2-[4-(2,2-Dimethylbutyl)-1H-imidazol-2-yl]ethyl}phenyl)cyclohexanecarboxylic acid]",2.8 nM
7,"CC(C)(Cc1cnc(CCc2ccc(-c3ccc(F)cn3)cc2)[nH]1)C1CC1 [Example 236, 2-(4-{2-[5-(2-Cyclopropyl-2-methylpropyl)-1H-imidazol-2-yl]ethyl}phenyl)-5-fluoropyridine]",25 nM
8,"CCC(CF)(CF)Cc1cnc(CCc2ccc(-c3ccc(F)cn3)cc2)[nH]1 [Example 237, 2-(4-{2-[5-(2,2-Bis(fluoromethyl)butyl)-1H-imidazol-2-yl]ethyl}phenyl)-5-fluoro-pyridine]",15 nM

# More lines, in order of falling IC50, values ahead:
row,IC50,SMILES
1,117 nM,O=C(O)c1ccccc1-c1ccc(CCc2ncc(CC3CCCC3)[nH]2)cc1 [Example 26]
2,116 nM,"CC(C)(C)Cc1cnc(CCc2ccc(-c3ccccn3)cc2)[nH]1 [Example 240, 2-(4-{2-[4-(2,2-Dimethylpropyl)-1H-imidazol-2-yl]ethyl}phenyl)pyridine]"
3,20 nM,O=C(O)c1cc(F)c(F)cc1-c1ccc(CCc2nc(CC3CCCCC3)c[nH]2)cc1 [Example 94]
4,6.3 nM,CCC(C)(C)Cc1c[nH]c(CCc2ccc(-c3cccc(C)n3)cc2)n1 [Example 110]
5,5.3 nM,"CCC(C)(C)Cc1c[nH]c(CCc2ccc(-c3ccccc3OCc3nn[nH]n3)cc2)n1 [Example 246, 5-(4′-{2-[4-(2,2-Dimethylbutyl)-1H-imidazol-2-yl]ethyl}biphenyl-2-yloxymethyl)-1H-tetrazole]"
